Laboratory results taken from patent US20060241178A1, “Compositions and methods for treating lung cancer” (priority 2002, published 2006).
Read-outs that look alike come from different tables or passages of the source. Marks after values point to notes of the source that are not given here.

How the values were obtained:
[1] = test system: B(a)P-induced lung adenoma; test: Tumor bioassay: B(a)P-induced lung tumorigenesis, ITC-NAC conjugates in diet during post-initiation phase
Method: The ITC conjugates were incorporated (15 μmol/g diet) into AIN-76A diets (5% corn oil) by mixing with dextrose prior to diet preparation. The conjugates, 9.36 g BITC-NAC (15 mmol) or 9.79 g PEITC-NAC (15 mmol), were dissolved in 50 ml ethyl acetate, and then mixed with 200 g dextrose to ensure even coating of dextrose particles. After mixing with dextrose, the solvent was removed using a rotary evaporator and further dried using a vacuum pump (2-3 h). Diets were prepared in 1-2 kg batches, and were stored at 4° C. in a container purged with nitrogen. […] Stability was determined by extraction of 0.5 g portions of the diet with 2.5 ml methanol (2×). The methanol extracts were combined and a 1 ml aliquot was filtered using a 0.47 μm syringe filter. A 10 μl sample was then analyzed on HPLC (Jiao, et al., Chem. Res. Toxicol., 9: 932-938, 1996).
Tumor Bioassay: Female strain A mice (Jackson Laboratories, Bar Harbor, Me.) of four weeks of age were housed under quarantine in polycarbonate cages (5 mice/cage) and provided modified AIN 76A diet (5% corn oil) and acidified drinking water ad libitum. The mice were maintained on a 12 h light: 12 h dark regimen at 22±5° C. and 50±20% relative humidity. After one week, the mice were weighed, and distributed into four groups containing 30 to 35 mice on the basis of body weight. At seven weeks of age, the mice in groups 1-3 were gavaged with a single dose of 20 μmol B(a)P in 0.2 ml cottonseed oil; group 4 received the vehicle only. Two days after dosing with the carcinogen, diets containing BITC-NAC (15 μmol/g, Group 2) and PEITC-NAC (15 μmol/g, Group 3) were provided. Groups 1 (B[a]P control) and 4 (vehicle only) remained on the modified AIN-76A diet with 5% corn oil. Tap water was provided ad libitum during the course of the bioassay. Mice were observed daily; diets were replenished on the fourth day of the week, and completely replaced on the seventh day. Mice were weighed weekly for four weeks, then monthly and at termination. At 84 days after B(a)P dosing, four mice per group were killed (CO2, cervical dislocation) to harvest lung tissues for molecular and immunohistochemical studies and to quantify lung adenomas, if present. At 140 days after B(a)P, the remaining mice in each group were killed. The number of lung tumors was recorded; lobes of lungs were placed in 10% phosphate buffered formalin for histological and immunohistochemical analysis. The remaining lung lobes were snap frozen in liquid nitrogen.
Mean tumor multiplicity and body weights at each time point were compared between groups using Student's T test.

p53 = test: Western blot of lung proteins: p53 expression and phosphorylation; format: in vivo, A/J mice; conditions: lungs at termination of the bioassay
[2] = Stability of conjugates in AIN-76A diet (methanol extraction, HPLC); format: physicochemical; conditions: stored at 4° C. under nitrogen
Method: The ITC conjugates were incorporated (15 μmol/g diet) into AIN-76A diets (5% corn oil) by mixing with dextrose prior to diet preparation. […] After mixing with dextrose, the solvent was removed using a rotary evaporator and further dried using a vacuum pump (2-3 h). Diets were prepared in 1-2 kg batches, and were stored at 4° C. in a container purged with nitrogen. […] Stability was determined by extraction of 0.5 g portions of the diet with 2.5 ml methanol (2×). The methanol extracts were combined and a 1 ml aliquot was filtered using a 0.47 μm syringe filter.

[3] = test system: NNK/B(a)P-induced lung adenomas and adenocarcinomas; conditions: for Adenocarcinoma Incidence (%) / Adenocarcinoma Multiplicity mean ± SD / Adenoma Incidence (%) / Adenoma Multiplicity mean ± SD: preliminary
Method: The test compounds were given in the diet on week 21 after beginning of a weekly dose of a mixture of NNK/B(a)P: 3 μmol each (621 μg NNK and 756 μg B(a)P) in 0.1 ml cottonseed oil for eight weeks (a total of 8 doses) (groups 1 to 10); only vehicle (cottonseed oil) for groups 11 to 15. Animals were then given experimental diet for 20 weeks until week 40. Four mice in groups 1, 2, 4, 6, 8, and 10 (see Table 1) were sacrificed on weeks 20, 38, and 40. The bioassay was terminated on week 52. If sufficient numbers of tumors were developed in mice killed on week 40, the bioassay was terminated at week 40. Tumors (adenomas and carcinomas) were quantified by multiplicity and incidence. At sacrifice, livers and lungs were harvested and the tissues rinsed in autoclaved PBS, stored in labeled foil, and snap frozen in liquid nitrogen. These tissues both tumorous and non-tumorous were processed by histology for biomarker studies (TUNEL, PCNA,p53, […] kinases, etc.). Lungs were examined by histology at termination (52 week or 40 week) for adenomas and carcinomas).
In this study, the potential protective effects of ITCs and ITC-NACs against progression of lung adenomas to malignant tumors were investigated. Lung tumors were induced in A/J mice with 3 μmol B(a)P plus 3 μmol NNK (gavage once/wk, 8 wks); mice were maintained on AIN-76A semi-purified diets. […] Diets containing PEITC (phenethyl ITC) or SFN (sulforaphane), each at 3 mmol/kg and 1.5 mmol/kg diet; PEITC-NAC or SFN-NAC at 8 mmol/kg and 4 mmol/kg diet; and NAC at 8 mmol/kg diet were then provided to groups of 28 mice (high dose) or 20 mice (low dose) during weeks 20 to 40 after initiation. Four mice in each high dose treatment group were killed during weeks 28 and 40 to monitor tumor incidence and progression; lung tissues were used for molecular studies. Remaining mice were killed at 40 weeks for histopathological examination. […] To assess molecular events occurring during the treatments, lung RNA of mice treated with B(a)P+NNK/control diet and B(a)P+NNK/PEITC-NAC high dose diet was examined using a Mouse Cancer Pathway Finder Gene Array.

[4] = test system: c-Jun (AP-1 pathway) and Akt pathway genes; test: Mouse Cancer Pathway Finder Gene Array on lung RNA; format: in vivo, A/J mice; conditions: PEITC-NAC high dose diet vs control diet
Description: Some mice also had developed forestomach masses. […] Findings involving other pathways will be presented.

A549/TAM67 cells = test: Apoptosis in A549/TAM67 transfectants (morphology, DNA fragmentation, annexin V, PARP Western blot); format: cell-based, human; conditions: 25 μM
A549 cells = test: Apoptosis in A549 cells treated with TPA, PEITC-NAC or TPA plus PEITC-NAC (photography, DAPI staining); format: cell-based, human; conditions: TPA 100 nM 12 h prior, then PEITC-NAC 24 h
Description: Assay for single cell DNA strand breaks: A549 cells treated with or without TPA, PEITC-NAC or TPA plus PEITC-NAC were collected at the times specified in the text, cytocentrifuged and stained with 4′-6′diamidino-2-phenylindole (DAPI). The photographs were taken using an Olympus AX 70 microscope (Melville, N.Y.) with fluorescence and SPOT RT Slider digital image system (Diagnostic Instruments Inc., Sterling Heights, Mich.). Arrows indicated the typical apoptotic features of DNA strand breakage and nuclear fragmentation.
TPA (100 nM) was added to A549 cells 12 h prior to addition of PEITC-NAC, which was added 24 h before photography of cells, protein isolation, or DAPI staining. […] These cells were treated identically, but were stained with the DNA fluorochrome DAPI.

[5] = high dose (3 or 8 mmol/kg diet)
[6] = low dose (1.5 or 4 mmol/kg diet)

## CC(=O)N[C@@H](CSC(=S)NCCc1ccccc1)C(=O)O [PEITC-NAC, N-acetylcysteine Conjugate of phenethyl isothiocyanate]
[1]; 15 μmol/g diet after B(a)P, at termination, B(a)P control 6.1±3.1
  tumor multiplicity: 3.4±2.7 tumors/mouse
[1]; 15 μmol/g diet from 2 days after 20 μmol B(a)P, 140 days
  Tumor Incidence (%), lung adenoma: 89%
[1]; 15 μmol/g diet from 2 days after 20 μmol B(a)P, 140 days, mean ± SD
  Tumor multiplicity (no. of tumors/mice), lung adenoma: 3.39 ± 2.71^b no. of tumors/mice
[1]; 15 μmol/g diet, controls 25.8 g and 25.7 g
  average body weight at termination: 22.8 g
[1]; versus B(a)P control diet group, at termination
  tumor reduction: 44%
p53
  phosphorylation of p53 at Ser15: stronger increase
[2]
  stability in diet: stable for at least one month
[3]; 8 mmol/kg diet, initiated control group 60%
  incidence of adenocarcinoma/squamous carcinoma: 20%
[3]; at termination
  mean numbers of lung adenomas compared with carcinogen control mice: decreases were significant
[3]; [5]
  Adenocarcinoma Incidence (%): 5/31 (16.1%)
  Adenocarcinoma Multiplicity mean ± SD: 0.52 ± 1.50
  Adenoma Incidence (%): 30/31 (96.8%)
[3]; high dose (PEITC, SFN 3 mmol/kg diet; PEITC-NAC, SFN-NAC, NAC 8 mmol/kg diet)
  Adenoma Multiplicity mean ± SD: 8.19 ± 3.99
[3]; [6]
  Adenocarcinoma Incidence (%): 4/19 (21.05%)
  Adenocarcinoma Multiplicity mean ± SD: 0.53 ± 1.14
  Adenoma Incidence (%): 17/19 (89.47%)
[3]; low dose (PEITC, SFN 1.5 mmol/kg diet; PEITC-NAC, SFN-NAC 4 mmol/kg diet)
  Adenoma Multiplicity mean ± SD: 7.58 ± 3.88
[3]; low dose groups, initiated control group 2.1
  malignant tumor multiplicity: 0.9 tumors/mouse
[4]
  c-Jun expression (AP-1 pathway) and Akt pathway genes: up-regulated
A549/TAM67 cells; 3 h
  PARP 89 kD cleavage fragment: a defined 89 kD band
A549/TAM67 cells; 20 h
  cell survival (annexin V-Cy3 / 6-CFDA staining): nearly no cell survival
A549/TAM67 cells; 24 h
  PARP protein: completely degraded
  cell survival (morphology, DNA fragmentation): most TAM67 transfectants had already died
A549 cells
  incidence of apoptosis in TPA-pretreated cells compared with PEITC-NAC alone: a much higher incidence of apoptosis
